Source: patent US20230055441A1 (NONO INC., priority 2020, published 2023)
“Also recorded” adds a separate entry of the source. Square brackets hold non-standard residues; d marks the D form. Ends that are not written are not given here. Peptide text beside a SMILES is read from it.

Assays:
[1] = Pharmacokinetic analysis in rats by route (subcutaneous, pulmonary instillation, intramuscular, intravenous); conditions: rat; for Cmax / plasma concentration, pulmonary instillation / plasma exposure, pulmonary instillation / AUC / plasma exposure, subcutaneous / Cmax, subcutaneous: 25 mg/kg (Table 4); for plasma exposure, pulmonary instillation: versus intrapulmonary NA-1; for AUC / plasma exposure, subcutaneous / Cmax, subcutaneous: NA-1 versus IV NA-1, others versus subcutaneous NA-1
Method: Rats were anaesthetized in the supine position (Isoflurane 1.5-%) and allowed to breath spontaneously in 0.5 L/min 02. The left femoral artery was cannulated for blood sampling.
Test agents were prepared at the stablish concentration in a total volume of vehicle. Pulmonary instillation was performed by intubation with a 14G catheter connected to a 1 cc syringe and the test agent will be delivered through the catheter. Subcutaneous (SQ or SC) injection was injected into the area of the left flank, no more than 2 ml of total volume per site.
Each dose was evaluated in 3 rats for each administration strategy. […] For the first experiment, evaluating two different administration routes (SQ and PI), blood samples were collected at 8 different timepoints: Pre and at 7 additional times (1, 2.5, 5, 10, 15, 30, 60 min) post dose (250 ul/sample). For the 24-hour PK curve experiment, blood samples were collected at 11 timepoints: Pre, 2.5, 5, 10, 15, 30, 60 min, 3 hr, 6 hr, 12 hr and 24 hr.
HPLC quantification: Plasma was separated from blood and stored at −80° C. until used. Each sample was precipitated by adding 1M HCl (10 ul/100 ul sample) at >80° C., centrifuged (12,000 rpm×15 min) and the precipitate collected. A 5 cm C—18 RP-HPLC column was equilibrated with 10% acetonitrile with 0.1% TFA at 40° C., the sample was injected and run in an Agilent 1260 Infinity Quaternary LC System. (30 min at 1.5 mL/min; gradient from 10% to 35% acetonitrile in 0.1% TFA; Absorbance detected at 220 nm). Standard curves for HPLC were generated from plasma samples spiked with known quantities of test agent.

PSD95PDZ2 [2] = molecular target: T1, PSD95PDZ2 (Homo sapiens, UniProt P78352); assay: Competitive ELISA with biotinylated-NA-1 on coated PSD95PDZ2; format: binding
Method: Binding was evaluated with a competitive ELISA assay. A plate was coated with 1 ug/ml PSD95PDZ2 in 50 mM bicarbonate buffer overnight at 4C. The plate was blocked in 2% BSA in PBST (0.05%) for 2 h at room temperature. […] The wells were washed again, and then incubated with TMB solution for 10 min. The reaction was stopped with 100 ul H2SO4. Absorbance was determined at 450 nm with the synergy H1 reader.
Target sequence in this assay (P78352 160-246 limits assumed): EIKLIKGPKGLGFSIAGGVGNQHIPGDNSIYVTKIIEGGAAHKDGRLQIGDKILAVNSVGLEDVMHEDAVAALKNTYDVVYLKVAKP

[3] = Pharmacokinetics after subcutaneous injection in non-human primates; format: in vivo, cynomolgus macaques; conditions: for plasma concentrations: cynomolgus macaques
Description: All values are presented as mean±SD; Statistical significance when compared to nerinetide alone is indicated as * (one-way ANOVA with post-hoc turkey's correction, *P<0.01). (Cmax: maximum plasma concentrations based on the extrapolated time-zero value; t1/2: half-life at terminal phase; tmax: time to reach Cmax; AUC0-t: area under the concentration-time curve from 0 to the last measured value; AUC0-inf: extrapolated area under the concentration-time curve from 0 to infinity; Cl: total clearance). Data is presented as mean±SD of three-four animals per group. The (−) represent data not reported due to an extrapolation of the AUC0-inf greater than 20% and R^2 lower than 0.9.

[4] = Plasma concentrations 15 minutes after subcutaneous dose in rats of the 3-pial vessel occlusion study; format: in vivo; conditions: rat
Method: Unlike transient models of stroke in rats where much lower doses are required for neuroprotection, neuroprotection in 3 pial vessel occlusion models of stroke seems to require plasma concentrations of nerinetide at or above 2 ug/mL (or molar equivalent). […] Although the plasma levels continue to increase through about 3 hours then decrease, it is important to achieve rapid accumulation in the blood and brain for emergency indications like stroke. […] For pharmacokinetic sample analysis, calibration standard samples at concentrations of 0, 2.5, 5, 10, 15, 20 and 40 ug/mL of nerinetide were prepared by spiking 1 μL of the appropriate stock to 100 μL of plasma. […] Data is presented as mean±SD.

histamine = assay: Histamine release in rat plasma (histamine ELISA)
Method: Blood samples were collected at 11 timepoints: Pre, 2.5, 5, 10, 15, 30, 60 min, 3 hr, 6 hr, 12 hr and 24 hr. Histamine levels were quantified by using commercially available histamine ELISA assay kit (Histamine ELISA-H1531-K01, Eagle Bioscience). The plates were coated with the plasma samples (50 ul/well) incubated for 60 minutes at room temperature on an orbital shaker with medium frequency. Then 100 ul of enzyme conjugate was added to the wells and incubated for 20 minutes at room temperature. Samples were washed again, and then incubated for 25 minutes at room temperature with TMB solution. The reaction was stopped with 100 ul H2SO4. Absorbance was determined on an ELISA plate reader at 450 nm.
Blood samples were taken at pre-injection and at 0, 1, 2.5, 5, 10, 15, 30- and 60-minutes post dose and used for histamine levels quantification using commercially available kit.

PSD95PDZ2 [5] = molecular target: T1, PSD95PDZ2; assay: competitive ELISA, PSD95PDZ2 coated, competitor biotinylated NA-1
Target sequence in this assay (P78352 160-246 limits assumed): as above

PSD95PDZ2 [6] = molecular target: T1, PSD95PDZ2; assay: direct ELISA; biotinylated peptide
Target sequence in this assay (P78352 160-246): as the sequence (P78352 160-246 limits assumed) above

PSD95PDZ2 [7] = molecular target: T1, PSD95PDZ2; assay: direct ELISA; biotinylated peptide; unit printed "um"
Target sequence in this assay (P78352 160-246): as the sequence (P78352 160-246 limits assumed) above

tPA = tPA in PBS buffer (no plasma)
plasmin = assay: digested with plasmin
TNK = TNK in phosphate buffered saline alone
[8] = test system: TNK-tissue plasminogen activator; assay: human plasma with TNK
[9] = test system: TNK-tissue plasminogen activator; assay: rat plasma with TNK
[10] = subcutaneous 25 mg/kg versus nerinetide IV infusion
[11] = listed as D-Tat-L-IESDV, 25 mg/kg
[12] = subcutaneous 25, 8.3, 2.8 mg/kg

CC[C@@H](C)[C@@H](NC(=O)[C@@H](CO)NC(=O)[C@@H](CO)NC(=O)[C@@H](CC(C)C)NC(=O)[C@@H](CCCCN)NC(=O)[C@@H](CCCNC(=N)N)NC(=O)[C@@H](CCCNC(=N)N)NC(=O)[C@@H](CCCNC(=N)N)NC(=O)[C@@H](CCC(N)=O)NC(=O)[C@@H](CCCNC(=N)N)NC(=O)[C@@H](CCCNC(=N)N)NC(=O)[C@@H](CCCCN)NC(=O)[C@@H](CCCCN)NC(=O)[C@@H](CCCNC(=N)N)NC(=O)CNC(=O)[C@H](N)Cc1ccc(O)cc1)C(=O)N[C@H](CCC(=O)O)C(=O)N[C@H](CO)C(=O)N[C@H](CC(=O)O)C(=O)N[C@@H](C(=O)O)C(C)C [D-NA-1, ygrkkrrqrrrklssiesdv] (H-[dY]G[dR][dK][dK][dR][dR][dQ][dR][dR][dR][dK][dL][dS][dS][dI][dE][dS][dD][dV]-OH)
Cmax / plasma concentration, pulmonary instillation [1]: higher plasma concentration | plasma exposure, pulmonary instillation [1]: greater plasma exposure | AUC / plasma exposure, subcutaneous [1]: also increased Cmax and AUC relative to subcutaneous NA-1 but not to the same extent | Cmax, subcutaneous [1]: also increased Cmax and AUC relative to subcutaneous NA-1 but not to the same extent | EC50 compared among NA-1, D-Tat-L-2B9C and D-NA-1 (PSD95PDZ2 [2]; FIG. 12): about ten-fold lower

CC[C@H](C)[C@H](NC(=O)[C@@H](CO)NC(=O)[C@@H](CO)NC(=O)[C@@H](CC(C)C)NC(=O)[C@@H](CCCCN)NC(=O)[C@@H](CCCNC(=N)N)NC(=O)[C@@H](CCCNC(=N)N)NC(=O)[C@@H](CCCNC(=N)N)NC(=O)[C@@H](CCC(N)=O)NC(=O)[C@@H](CCCNC(=N)N)NC(=O)[C@@H](CCCNC(=N)N)NC(=O)[C@@H](CCCCN)NC(=O)[C@@H](CCCCN)NC(=O)[C@@H](CCCNC(=N)N)NC(=O)CNC(=O)[C@H](N)Cc1ccc(O)cc1)C(=O)N[C@@H](CCC(=O)O)C(=O)N[C@@H](CO)C(=O)N[C@@H](CC(=O)O)C(=O)N[C@H](C(=O)O)C(C)C [NA-3, ygrkkrrqrrrklsslESDV] (H-[dY]G[dR][dK][dK][dR][dR][dQ][dR][dR][dR][dK][dL][dS][dS]IESDV-OH)
plasma concentrations ([3]; 7.6 mg/Kg subcutaneous): able to achieve plasma concentrations higher than those demonstrated to be effective in humans | plasma concentrations ([3]; 25 mg/kg subcutaneous): able to achieve plasma concentrations higher than those demonstrated to be effective in humans | AUC [3, 10]: greater Cmax and AUC than nerinetide IV infusion | Cmax [3, 10]: greater Cmax and AUC than nerinetide IV infusion | plasma exposure, pulmonary instillation [1]: greater plasma exposure | Cmax / plasma concentration, pulmonary instillation ([1]; 25 mg/kg): higher plasma concentration | Cmax / plasma concentration, pulmonary instillation [1, 11]: higher CMax than for NA-1 or D-Tat-L-2B9C | dose dependence of AUC, subcutaneous [1, 12]: dose-dependent increasing linearly with dose | dose dependence of Cmax, subcutaneous [1, 12]: dose-dependent increasing linearly with dose | AUC / plasma exposure, subcutaneous ([1]; 25 mg/kg): greater plasma exposure relative to SQ NA-1 | Cmax, subcutaneous ([1]; 25 mg/kg): higher plasma concentration | AUC / plasma exposure, subcutaneous [1, 11]: increased Cmax and AUC compared with subcutaneous NA-1 | Cmax, subcutaneous [1, 11]: increased Cmax and AUC compared with subcutaneous NA-1 | dose proportionality between treatment dose and Cmax ([4]; single subcutaneous administration 25, 7.6, 2.5 mg/kg): dose proportionality | stability in plasma ([4]; subcutaneous, compared to nerinetide): higher stability in plasma | plasma concentration at 15 min post-dose ([4]; subcutaneous, compared to nerinetide at the same dose): higher concentration at 15 min post-dose | histamine release (histamine; 25 mg/kg SQ): resulted in histamine release but still much less than 7.6 mg/kg IV | histamine release (histamine; subcutaneous 2.8 mg/kg): Lack of significant histamine release | histamine release (histamine; subcutaneous 2.8 mg/kg, listed as D-Tat-L-IESDV): did not result in significant histamine release | histamine release (histamine; subcutaneous 8.3 mg/kg): Lack of significant histamine release | histamine release (histamine; subcutaneous 8.3 mg/kg, listed as D-Tat-L-IESDV): did not result in significant histamine release | IC50 (PSD95PDZ2 [2]): < 5000 nM

D-NA-1 (peptide)
fold difference of EC50 against NA-1 and D-Tat-L-2B9C (PSD95PDZ2 [5]): 10 fold

D-NA-1 NA1 (Bio-D-NA1)
EC50 (PSD95PDZ2 [6]): 1380 nM

D-Tat-L-NA-1 (Bio-D-Tat-L-NA1)
EC50 (PSD95PDZ2 [7]): 139 nM

YGRKKRRQRRRKLSSIESDV
not cleaved (tPA): no degradation | fragment found (plasmin): RRQRRRKLSSIESDV; also recorded: RQRRRKLSSIESDV; also recorded: QRRRKLSSIESDV; also recorded: RRKLSSIESDV; also recorded: RKLSSIESDV; also recorded: KLSSIESDV; also recorded: LSSIESDV | not cleaved (TNK): not directly cleaved

ygrkkrrqrrrKLSSIESDV ([dY]G[dR][dK][dK][dR][dR][dQ][dR][dR][dR]KLSSIESDV)
not cleaved (tPA): no degradation | not cleaved [8]: stable | not cleaved [9]: stable
